# Measurements as given in PubChem BioAssay AID256 (DTP/NCI, 2004).
# Where “and” joins values, the source holds several entries; their conditions need not be identical. Identical values can stand only once. Inconclusive results and toxic doses are left out. Starred links: 1 amine or outer side, 2 acyl side, 3 side chain; linkers in the order of their positions; H or OH if unused. Positions of bridges follow the written chain, without caps; N, C: chain ends. Non-standard residues stand in square brackets, D forms with d. Residues, ends and D or L forms follow the SMILES beside them. Chains are numbered I, II in the order given. Actinocin(1to9) = Cc1c2oc3c(C)ccc(C(=O)[*:2])c3nc-2c(C(=O)[*:1])c(N)c1=O; NMeV = CN[CH](C(=O)O)C(C)C; Aze = O=C(O)[CH]1CCN1; Sar = CNCC(=O)O
# Test system: CD2F1 mice, L1210 leukemia ip, survival T/C
# Experiment: NCI In Vivo Anticancer Drug Screen. Data for tumor model L1210 Leukemia (intraperitoneal) in CD2F1 (CDF1) mice
# Settings: higher = longer survival
# In short: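 Ratio T/C, where T is the treated-group value and C the vehicle-dosed control value, from mice implanted with a transplantable tumor.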
# [1] = endpoint: mean survival time, dose: 100.0 mg/kg/injection, schedule: Q04DX003 (ip), vehicle: saline with Tween-80
# [2] = endpoint: mean survival time, dose: 200.0 mg/kg/injection, schedule: Q04DX003 (ip), vehicle: saline with Tween-80
# [3] = endpoint: mean survival time, dose: 400.0 mg/kg/injection, schedule: Q04DX003 (ip), vehicle: saline with Tween-80
# [4] = endpoint: mean survival time, dose: 100.0 mg/kg/injection, schedule: Q01DX001 (ip), vehicle: saline
# [5] = endpoint: mean survival time, dose: 200.0 mg/kg/injection, schedule: Q01DX001 (ip), vehicle: saline
# [6] = endpoint: mean survival time, dose: 400.0 mg/kg/injection, schedule: Q01DX001 (ip), vehicle: saline
# [7] = endpoint: mean survival time, dose: 100.0 mg/kg/injection, schedule: Q01DX009 (ip), vehicle: saline with Tween-80
# [8] = endpoint: mean survival time, dose: 200.0 mg/kg/injection, schedule: Q01DX009 (ip), vehicle: saline with Tween-80
smiles,measurement,setting,value
CCOC(=O)C(C(=O)OCC)C(=O)C(C)C,T/C,[1],93 % of control
same,T/C,[2],97 % of control
same,T/C,[3],95 % of control
NC(=S)NNc1c(NNC(N)=S)c(=O)c1=O,T/C,[4],93 % of control
same,T/C,[5],98 % of control
same,T/C,[6],102 % of control
CCN1/C(=C/C(C)=C/c2sc3ccccc3[n+]2CC)Sc2ccccc21,T/C,"endpoint: mean survival time, dose: 5.0 mg/kg/injection, schedule: Q01DX001 (ip), vehicle: other",96 % of control
same,T/C,"endpoint: mean survival time, dose: 200.0 micrograms/kg/injection, schedule: Q04DX003 (ip), vehicle: Klucel (hydroxypropylcellulose) (HPC)",104 % of control
same,T/C,"endpoint: mean survival time, dose: 400.0 micrograms/kg/injection, schedule: Q04DX003 (ip), vehicle: Klucel (hydroxypropylcellulose) (HPC)",104 % of control
O=C1CNC(c2ccccc2)C(c2ccccc2)N1 (centres undefined),T/C,[1],100 % of control
same,T/C,[2],102 % of control
same,T/C,[3],101 % of control
COc1ccccc1N1C(=O)CSC1=S,T/C,[1],96 % of control
same,T/C,[2],93 % of control
same,T/C,[3],106 % of control
CS(=O)(=O)OCCN(CCOS(C)(=O)=O)c1ccc([N+](=O)[O-])cc1,T/C,"endpoint: mean survival time, dose: 12.5 mg/kg/injection, schedule: Q01DX010 (ip), vehicle: saline",100 % of control
same,T/C,"endpoint: mean survival time, dose: 25.0 mg/kg/injection, schedule: Q01DX010 (ip), vehicle: saline",100 % of control
same,T/C,"endpoint: mean survival time, dose: 50.0 mg/kg/injection, schedule: Q01DX010 (ip), vehicle: saline",115 % of control
same,T/C,"endpoint: mean survival time, dose: 100.0 mg/kg/injection, schedule: Q01DX010 (ip), vehicle: saline",106 % of control
Cc1nn(-c2ccccc2)c2[nH]cnc(=S)c12,T/C,"endpoint: mean survival time, dose: 12.5 mg/kg/injection, schedule: Q01DX005 (ip), vehicle: other",86 % of control
same,T/C,"endpoint: mean survival time, dose: 25.0 mg/kg/injection, schedule: Q01DX005 (ip), vehicle: other",91 % of control
same,T/C,"endpoint: mean survival time, dose: 50.0 mg/kg/injection, schedule: Q01DX005 (ip), vehicle: other",92 % of control
same,T/C,"endpoint: mean survival time, dose: 100.0 mg/kg/injection, schedule: Q01DX005 (ip), vehicle: other",97 % of control
same,T/C,"endpoint: mean survival time, dose: 200.0 mg/kg/injection, schedule: Q01DX005 (ip), vehicle: other",93 % of control
O=C(COc1ccc(Cl)c(Cl)c1)NCCc1ccccn1,T/C,[7],95 % of control
same,T/C,[8],97 % of control
same,T/C,"endpoint: mean survival time, dose: 400.0 mg/kg/injection, schedule: Q01DX009 (ip), vehicle: saline with Tween-80",95 % of control
COc1ccc(-c2nc3ccccc3nc2-c2ccc(OC)cc2)cc1,T/C,[1],94 % of control
same,T/C,[2],94 % of control
CCCP(=O)(CCC)CCC,T/C,"endpoint: mean survival time, dose: 25.0 mg/kg/injection, schedule: Q01DX001 (ip), vehicle: saline with Tween-80",94 % of control
same,T/C,"endpoint: mean survival time, dose: 50.0 mg/kg/injection, schedule: Q01DX001 (ip), vehicle: saline with Tween-80",96 % of control
same,T/C,"endpoint: mean survival time, dose: 100.0 mg/kg/injection, schedule: Q01DX001 (ip), vehicle: saline with Tween-80",94 % of control
O=[N+]([O-])c1cccc(N=C(c2ccccc2)N(O)c2ccccc2)c1,T/C,[4],100 % of control
same,T/C,"endpoint: mean survival time, dose: 100.0 mg/kg/injection, schedule: Q04DX003 (ip), vehicle: saline",102 % of control
same,T/C,[5],100 % of control
same,T/C,"endpoint: mean survival time, dose: 200.0 mg/kg/injection, schedule: Q04DX003 (ip), vehicle: saline",97 % of control
same,T/C,[6],100 % of control
same,T/C,"endpoint: mean survival time, dose: 400.0 mg/kg/injection, schedule: Q04DX003 (ip), vehicle: saline",103 % of control
COc1ccc(NC(=O)N(CCO)c2ccccc2)c(Cl)c1,T/C,"endpoint: mean survival time, dose: 50.0 mg/kg/injection, schedule: Q01DX009 (ip), vehicle: Klucel (hydroxypropylcellulose) (HPC)",107 % of control
same,T/C,"endpoint: mean survival time, dose: 100.0 mg/kg/injection, schedule: Q01DX009 (ip), vehicle: Klucel (hydroxypropylcellulose) (HPC)",104 % of control
same,T/C,"endpoint: mean survival time, dose: 200.0 mg/kg/injection, schedule: Q01DX009 (ip), vehicle: Klucel (hydroxypropylcellulose) (HPC)",107 % of control
C(=Nc1ccccc1)c1ccc(C=Nc2ccccc2)cc1,T/C,[7],106 % of control
same,T/C,"endpoint: mean survival time, dose: 100.0 mg/kg/injection, schedule: Q04DX003 (ip), vehicle: saline sonified",97 % of control
same,T/C,[8],94 % of control
same,T/C,"endpoint: mean survival time, dose: 200.0 mg/kg/injection, schedule: Q04DX003 (ip), vehicle: saline sonified",102 % of control
same,T/C,"endpoint: mean survival time, dose: 400.0 mg/kg/injection, schedule: Q04DX003 (ip), vehicle: saline sonified",97 % of control
CCCCCCCCCCCCN=C(N)C(N)=NCCCCCCCCCCCC,T/C,"endpoint: mean survival time, dose: 25.0 mg/kg/injection, schedule: Q04DX002 (ip), vehicle: other",93 % of control
same,T/C,"endpoint: mean survival time, dose: 50.0 mg/kg/injection, schedule: Q04DX002 (ip), vehicle: other",93 % of control
same,T/C,"endpoint: mean survival time, dose: 100.0 mg/kg/injection, schedule: Q04DX002 (ip), vehicle: other",116 % of control
"Cc1c2oc3c(C)ccc(C(=O)NC4C(=O)NC(C(C)C)C(=O)N5CCCC5C(=O)N(C)CC(=O)N(C)C(C(C)C)C(=O)OC4C)c3nc-2c(C(=O)NC2C(=O)NC(C(C)C)C(=O)N3CCC3C(=O)N(C)CC(=O)N(C)C(C(C)C)C(=O)OC2C)c(N)c1=O (centres undefined) (I: TV[Aze][Sar][NMeV] / II: TVP[Sar][NMeV]; ester I:1-I:C, II:1-II:C; linker I:N-II:N via Actinocin(1to9); configuration not given here)",T/C,"endpoint: mean survival time, dose: 37.0 micrograms/kg/injection, schedule: Q01DX009 (ip), vehicle: saline + alcohol",103 % of control
same,T/C,"endpoint: mean survival time, dose: 75.0 micrograms/kg/injection, schedule: Q01DX009 (ip), vehicle: saline + alcohol",117 % of control
same,T/C,"endpoint: mean survival time, dose: 300.0 micrograms/kg/injection, schedule: Q01DX009 (ip), vehicle: saline + alcohol",151 % of control
same,T/C,"endpoint: mean survival time, dose: 600.0 micrograms/kg/injection, schedule: Q01DX009 (ip), vehicle: saline + alcohol",109 % of control
same,T/C,"endpoint: median survival time, dose: 12.5 micrograms/kg/injection, schedule: Q01DX009 (ip), vehicle: saline",108 % of control
same,T/C,"endpoint: median survival time, dose: 25.0 micrograms/kg/injection, schedule: Q01DX009 (ip), vehicle: saline",115 % of control
same,T/C,"endpoint: median survival time, dose: 50.0 micrograms/kg/injection, schedule: Q01DX009 (ip), vehicle: saline",115 % of control
same,T/C,"endpoint: median survival time, dose: 100.0 micrograms/kg/injection, schedule: Q01DX009 (ip), vehicle: saline",123 % of control
same,T/C,"endpoint: median survival time, dose: 200.0 micrograms/kg/injection, schedule: Q01DX009 (ip), vehicle: saline",150 % of control
same,T/C,"endpoint: median survival time, dose: 400.0 micrograms/kg/injection, schedule: Q01DX009 (ip), vehicle: saline",91 % of control
CCOC(=O)c1c(C)c2c(n1C)CC/C(=C\N1CCOCC1)C2=O,T/C,"endpoint: mean survival time, dose: 100.0 mg/kg/injection, schedule: Q04DX002 (ip), vehicle: saline with Tween-80",93 % of control
same,T/C,"endpoint: mean survival time, dose: 200.0 mg/kg/injection, schedule: Q04DX002 (ip), vehicle: saline with Tween-80",93 % of control
same,T/C,"endpoint: mean survival time, dose: 400.0 mg/kg/injection, schedule: Q04DX002 (ip), vehicle: saline with Tween-80",96 % of control
CCOC(=O)Nc1cc(NCc2ccccc2)c([N+](=O)[O-])c(N)n1,T/C,"endpoint: mean survival time, dose: 12.5 mg/kg/injection, schedule: Q01DX001 (ip), vehicle: Klucel (hydroxypropylcellulose) (HPC)",109 % of control
same,T/C,"endpoint: mean survival time, dose: 25.0 mg/kg/injection, schedule: Q01DX001 (ip), vehicle: Klucel (hydroxypropylcellulose) (HPC)",101 % of control
same,T/C,"endpoint: mean survival time, dose: 50.0 mg/kg/injection, schedule: Q01DX001 (ip), vehicle: Klucel (hydroxypropylcellulose) (HPC)",91 % of control
[Cl][Pt+2][Cl].[NH-]C1CCC1.[NH2-],T/C,"endpoint: mean survival time, dose: 0.39 mg/kg/injection, schedule: Q04DX003 (ip), vehicle: saline",98 % of control
same,T/C,"endpoint: mean survival time, dose: 0.78 mg/kg/injection, schedule: Q04DX003 (ip), vehicle: saline",100 % of control
same,T/C,"endpoint: mean survival time, dose: 1.56 mg/kg/injection, schedule: Q04DX003 (ip), vehicle: saline",120 % of control
same,T/C,"endpoint: mean survival time, dose: 3.12 mg/kg/injection, schedule: Q04DX003 (ip), vehicle: distilled water + Tween-80",110 % of control
same,T/C,"endpoint: mean survival time, dose: 3.12 mg/kg/injection, schedule: Q04DX003 (ip), vehicle: water",200 % of control
same,T/C,"endpoint: mean survival time, dose: 6.25 mg/kg/injection, schedule: Q04DX003 (ip), vehicle: distilled water + Tween-80",86 % of control
same,T/C,"endpoint: mean survival time, dose: 6.25 mg/kg/injection, schedule: Q04DX003 (ip), vehicle: saline",168 % of control
same,T/C,"endpoint: mean survival time, dose: 6.25 mg/kg/injection, schedule: Q04DX003 (ip), vehicle: water",111 % of control
same,T/C,"endpoint: median survival time, dose: 0.38 mg/kg/injection, schedule: Q01DX009 (ip), vehicle: saline",122 % of control
same,T/C,"endpoint: median survival time, dose: 1.5 mg/kg/injection, schedule: Q01DX009 (ip), vehicle: saline",156 % of control and 172 % of control
same,T/C,"endpoint: median survival time, dose: 3.0 mg/kg/injection, schedule: Q01DX009 (ip), vehicle: saline",184 % of control and 213 % of control
same,T/C,"endpoint: median survival time, dose: 3.0 mg/kg/injection, schedule: Q01DX009 (ip), vehicle: suspension in saline",314 % of control
same,T/C,"endpoint: median survival time, dose: 6.0 mg/kg/injection, schedule: Q01DX009 (ip), vehicle: saline",116 % of control and 123 % of control
same,T/C,"endpoint: median survival time, dose: 12.0 mg/kg/injection, schedule: Q01DX009 (ip), vehicle: suspension in saline",111 % of control
